System: Karpas cells
Experiment: Detection of surface protein combinations of the protein network on untreated (V1) and actinonin-treated (V2) Karpas cells
Assay type: cell-based
Conditions: actinonin-treated Karpas cells (V2)
Excerpt: Principally, detecting of the surface protein combinations may comprise procedural steps of an automated method for determining molecular classes, molecular groups or molecular parts in a solid or liquid object according to DE 197 09 348 C. In these steps, surface proteins may be examined and measured in one and the same object, i.e. in a sample of immune cells and/or tumor cells for example, by sequentially applying reagent solutions Yn (n=1,2,3, . . . N) by means of an automated apparatus, said procedural steps being: I. taking a first reagent solution Y1 from a vessel containing the reagent solution, II. applying said reagent solution Y1 to the object which is on an object slide, III. allowing the reagent solution to react for an automatically set period of time, IV. recording at least one individual labeling pattern of the object previously labeled with said first reagent solution Y1, V. repeating steps I-IV by applying said first reagent solution Y1 or a second reagent solution Y2 or a mixture of said first and second reagent solutions, and VI. repeating steps I to V with further reagent solutions Yn (n=2,3, . . . N) or a mixture thereof and whereby the labeling distribution patterns obtained in each cycle of the method are turned into a complex molecular combination pattern of the object to be examined by computer-aided image overlay. From this combination pattern, information may be gained on the presence of the above mentioned proteins, thus also allowing detection of the surface protein combinations, if the reagent solutions used contain labeled substances directed against the proteins in question. In numerous examinations, it was possible to identify the 30 cell surface proteins already listed above which belong to a specific protein network controlling the early polarization stages of tumor cells and immune cells. In a further examination, surface protein combinations of this protein network of Karpas cells were detected, both in untreated form and after treatment with the aminopeptidase inhibitor actinonin. For this purpose, two groups V1 and V2 of Karpas cells were formed, with the cells of group Vl remaining untreated, while the cells of group V2 were treated with actinonin. Table 2 lists those surface protein combinations which are present both in the actinonin-treated cells and in the untreated cells. However, this table and the further tables 3 and 4 only give examples of 18 of the 30 proteins, with the detected proteins being designated 1 and the non-detected proteins being designated 0. The proteins are continuously numbered 1 to 18, with the nomenclature being notable from table 1. [table] The cell numbers stated in tables 2 to 4 refer to each 1,000 cells examined in groups V1 and V2. Table 3 lists the surface protein combinations which only occur in the untreated Karpas cells and are never found in the actinonin-treated Karpas cells. The number of protein combinations listed in this table 3 amounts to 131. Finally, table 4 exclusively lists those surface protein combinations which occur exclusively in the actinonin-treated Karpas cells. It may be gathered from tables 2 to 4 that, if one examines merely 18 proteins of the 30 proteins, a total of 394 different surface protein combinations will occur, with a total of 334 different combinations occurring in the untreated cells and a total of 263 different combinations being detected in the treated cells.

Measured: V2 No. of cells In 1/1000

CCCCC[C@H](CC(=O)NO)C(=O)N[C@H](C(=O)N1CCC[C@H]1CO)C(C)C [actinonin]
0.0 1/1000: surface protein combination No. 19, binary code proteins 1-18: 011000011101011100, untreated V1: 0.4 | surface protein combination No. 20, binary code proteins 1-18: 011000011000000000, untreated V1: 0.4 | surface protein combination No. 21, binary code proteins 1-18: 010000001101001100, untreated V1: 0.4 | surface protein combination No. 22, binary code proteins 1-18: 010000001100011100, untreated V1: 0.4 | surface protein combination No. 23, binary code proteins 1-18: 001100011011001000, untreated V1: 0.4 | surface protein combination No. 24, binary code proteins 1-18: 001100011001001000, untreated V1: 0.4 | surface protein combination No. 25, binary code proteins 1-18: 001000010101101000, untreated V1: 0.4 | surface protein combination No. 26, binary code proteins 1-18: 001000010010001000, untreated V1: 0.4 | surface protein combination No. 27, binary code proteins 1-18: 000000000010001000, untreated V1: 0.4 | surface protein combination No. 28, binary code proteins 1-18: 111000011111011100, untreated V1: 0.2 | surface protein combination No. 29, binary code proteins 1-18: 110000011100011100, untreated V1: 0.2 | surface protein combination No. 30, binary code proteins 1-18: 101100000000001100, untreated V1: 0.2 | surface protein combination No. 31, binary code proteins 1-18: 101000111111011000, untreated V1: 0.2 | surface protein combination No. 32, binary code proteins 1-18: 011100011111011100, untreated V1: 0.2 | surface protein combination No. 33, binary code proteins 1-18: 011100011100001000, untreated V1: 0.2 | surface protein combination No. 34, binary code proteins 1-18: 011100001100001100, untreated V1: 0.2 | surface protein combination No. 35, binary code proteins 1-18: 001100000011001000, untreated V1: 0.2 | surface protein combination No. 36, binary code proteins 1-18: 001000011100000000, untreated V1: 0.2 | surface protein combination No. 37, binary code proteins 1-18: 001000010111011100, untreated V1: 0.2 | surface protein combination No. 38, binary code proteins 1-18: 001000010110001000, untreated V1: 0.2 | surface protein combination No. 39, binary code proteins 1-18: 001000001011000000, untreated V1: 0.2 | surface protein combination No. 40, binary code proteins 1-18: 000100010100001000, untreated V1: 0.2 | surface protein combination No. 41, binary code proteins 1-18: 000000011011001000, untreated V1: 0.2 | surface protein combination No. 42, binary code proteins 1-18: 000000010110001000, untreated V1: 0.2 | surface protein combination No. 43, binary code proteins 1-18: 000000010010001000, untreated V1: 0.2 | surface protein combination No. 44, binary code proteins 1-18: 000000000000001100, untreated V1: 0.2 | surface protein combination No. 45, binary code proteins 1-18: 111100101100011000, untreated V1: 0.1 | surface protein combination No. 46, binary code proteins 1-18: 111100011101001100, untreated V1: 0.1 | surface protein combination No. 47, binary code proteins 1-18: 111100011100111100, untreated V1: 0.1 | surface protein combination No. 48, binary code proteins 1-18: 111100011100011000, untreated V1: 0.1 | surface protein combination No. 49, binary code proteins 1-18: 111000011111011000, untreated V1: 0.1 | surface protein combination No. 50, binary code proteins 1-18: 111000011101011000, untreated V1: 0.1 | surface protein combination No. 51, binary code proteins 1-18: 111000001100011100, untreated V1: 0.1 | surface protein combination No. 52, binary code proteins 1-18: 110000001101011100, untreated V1: 0.1 | surface protein combination No. 53, binary code proteins 1-18: 110000001100000100, untreated V1: 0.1 | surface protein combination No. 54, binary code proteins 1-18: 101100011011011000, untreated V1: 0.1 | surface protein combination No. 55, binary code proteins 1-18: 101100010111001100, untreated V1: 0.1 | surface protein combination No. 56, binary code proteins 1-18: 101100010011001000, untreated V1: 0.1 | surface protein combination No. 57, binary code proteins 1-18: 101100000000001000, untreated V1: 0.1 | surface protein combination No. 58, binary code proteins 1-18: 101000110101011000, untreated V1: 0.1 | surface protein combination No. 59, binary code proteins 1-18: 101000011111011100, untreated V1: 0.1 | surface protein combination No. 60, binary code proteins 1-18: 101000011101011000, untreated V1: 0.1 | surface protein combination No. 61, binary code proteins 1-18: 101000010111111000, untreated V1: 0.1 | surface protein combination No. 62, binary code proteins 1-18: 101000010101011100, untreated V1: 0.1 | surface protein combination No. 63, binary code proteins 1-18: 100100110100011100, untreated V1: 0.1 | surface protein combination No. 93, binary code 001100010111111000 | surface protein combination No. 94, binary code 001100010111101100 | surface protein combination No. 95, binary code 001100010100011000 | surface protein combination No. 96, binary code 001100010011001100 | surface protein combination No. 97, binary code 001100010001001100 | surface protein combination No. 98, binary code 001100001101001000 | surface protein combination No. 99, binary code 001100000101000000 | surface protein combination No. 100, binary code 001000111111011000 | surface protein combination No. 101, binary code 001000111101011000 | surface protein combination No. 102, binary code 001000111011011000 | surface protein combination No. 103, binary code 001000011111011100 | surface protein combination No. 104, binary code 001000011101101000 | surface protein combination No. 105, binary code 001000011001011000 | surface protein combination No. 106, binary code 001000011001000100 | surface protein combination No. 107, binary code 001000010111101000 | surface protein combination No. 108, binary code 001000010101000100 | surface protein combination No. 109, binary code 001000010100011000 | surface protein combination No. 110, binary code 001000010011010000 | surface protein combination No. 111, binary code 001000010001011100 | surface protein combination No. 112, binary code 001000001111001000 | surface protein combination No. 113, binary code 001000001011001000 | surface protein combination No. 114, binary code 001000001001001000 | surface protein combination No. 115, binary code 001000001000000000 | surface protein combination No. 116, binary code 001000000110001000 | surface protein combination No. 117, binary code 000100011001000000

Reference: patent publication US20030130180A1, “Utilization of an aminopeptidase inhibitor” (priority 2000, published 2003)
